The results in this text go back to the supplement of paper PMC10307832.

What all share (test): relative viability (nuclei count vs DMSO), 5 days (fraction); higher = more cells survive
Compound in the test “Vismodegib + Luminespib”: CS(=O)(=O)c1ccc(C(=O)Nc2ccc(Cl)c(-c3ccccn3)c2)c(Cl)c1 [Vismodegib] + CCNC(=O)c1noc(-c2cc(C(C)C)c(O)cc2O)c1-c1ccc(CN2CCOCC2)cc1 [Luminespib] (partner 0.01 µM)
A digest of the protocol:
(§1)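 After 5 days of treatment, lung cancer cells in 1536-well plates were fixed and stained in a single step (final 0.05% Triton X-100, 1% formaldehyde, 1 ug/ml Hoechst) and their nuclei counted on 4× images. Treatment had been applied by pin tool the day after seeding as one drug alone or as a fixed anchor-drug dose with five library-drug doses (not always all listed) in √10 steps. Relative viability is the nuclei count of treated wells divided by that of vehicle wells, and values are medians of duplicate plates.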

Compound in the test “VE-821 + Trametinib”: CS(=O)(=O)c1ccc(-c2cnc(N)c(C(=O)Nc3ccccc3)n2)cc1 [VE-821] + CC(=O)Nc1cccc(-n2c(=O)n(C3CC3)c(=O)c3c(Nc4ccc(I)cc4F)n(C)c(=O)c(C)c32)c1 [Trametinib] (partner 0.02 µM)
An outline of the steps: as §1

Compound in the test “Ruxolitinib + Trametinib”: N#CC[C@H](C1CCCC1)n1cc(-c2ncnc3[nH]ccc23)cn1 [Ruxolitinib] + CC(=O)Nc1cccc(-n2c(=O)n(C3CC3)c(=O)c3c(Nc4ccc(I)cc4F)n(C)c(=O)c(C)c32)c1 [Trametinib] (partner 0.02 µM)
A digest of the protocol:
as §1

Compound in the test “Ruxolitinib + Alpelisib”: N#CC[C@H](C1CCCC1)n1cc(-c2ncnc3[nH]ccc23)cn1 [Ruxolitinib] + Cc1nc(NC(=O)N2CCC[C@H]2C(N)=O)sc1-c1ccnc(C(C)(C)C(F)(F)F)c1 [Alpelisib] (partner 2 µM)
An outline of the steps: as §1

Regarding UMC-11, the relative viability was determined as 0.937 in the test with Vismodegib + Luminespib (first compound 0.08 µM); 0.966 in the test with Vismodegib + Luminespib (first compound 0.253 µM); 1.01 with Vismodegib + Luminespib (first compound 0.8 µM); 0.933 in the test with Vismodegib + Luminespib (first compound 2.53 µM); 1.04 in the test with Vismodegib + Luminespib (first compound 8 µM); 0.738 with VE-821 + Trametinib (first compound 0.08 µM). Further, the relative viability with VE-821 + Trametinib (first compound 0.253 µM) turned out to be 0.596; in the test with VE-821 + Trametinib (first compound 0.8 µM) it was 0.516; in the test with VE-821 + Trametinib (first compound 2.53 µM), 0.798; with VE-821 + Trametinib (first compound 8 µM) it was 0.38; in the test with Ruxolitinib + Trametinib (first compound 0.08 µM), 0.823; with Ruxolitinib + Trametinib (first compound 0.253 µM) it was 0.703. The relative viability is 0.872 in the test with Ruxolitinib + Trametinib (first compound 0.8 µM); 1.03 with Ruxolitinib + Trametinib (first compound 2.53 µM); 0.653 in the test with Ruxolitinib + Trametinib (first compound 8 µM); 0.869 in the test with Ruxolitinib + Alpelisib (first compound 0.08 µM); 1.02 in the test with Ruxolitinib + Alpelisib (first compound 0.253 µM); 1.06 with Ruxolitinib + Alpelisib (first compound 0.8 µM). For the same cell line, the relative viability is 1.12 in the test with Ruxolitinib + Alpelisib (first compound 2.53 µM) and 0.938 with Ruxolitinib + Alpelisib (first compound 8 µM).
